# Experimental data from article PMC12843137, “Fine-Tuning Side Chain Substitutions: Impacts on the Lipophilicity–Solubility–Permeability Interplay in Macrocyclic Peptides” (Marine Drugs, 2025).
# Like-named read-outs stand apart in the source and are kept apart here.
# How the values were obtained:
# [1] = log D7.4 by shake-flask method (1-octanol/PBS); assay type: physicochemical
# Protocol: (§1) One explanation for the high IC50 values (i.e., low activity) of the new compounds is their potential poor solubility in aqueous solution or inadequate lipophilicity. To investigate this hypothesis, we determined kinetic solubility in […] phosphate buffer at pH 7.4 (Table 1). […] The remaining two compounds, BE and 29, show low solubilities (<0.1 μM). […] Additionally, since approximately 95% of drugs are ionizable, assessment of lipophilicity at pH 7.4 (log D7.4) is essential during the initial phases of drug discovery. In this study, we employ the shake-flask method to evaluate this property. […] Because lipophilicity directly reflects compound–membrane interaction, the activity of these compounds against PANC-1 cells likely stems from their interaction with the cell membrane.
# The basic solution is titrated with the acidic solution to achieve pH 7.4, with the pH verified and adjusted to 7.4 ± 0.1 on the experiment day. Saturated 1-octanol and PBS (pH 7.4) are also prepared. The stock solutions of test compounds and control compound progesterone are prepared in DMSO at a concentration of 10 mM (0.666 mM: compound 39). The detailed procedure for log D determinations can be found in the SI. […]
# 4. Procedure for log D determinations […]
# µL of phosphate buffer saturated 1-octanol to get a concentration of 300 µM working solution. 20 µL of 300 µM compound solution is placed in order into their proper 96-well rack followed by the addition of 980 µL of 1-octanol saturated phosphate buffer. One stir stick is added to each vial and vials are sealed molded PTFE/Silicone plugs. Then the log D plate is transferred to the Eppendorf Thermomixer Comfort plate shaker and shaken at 25°C at 1,100 RPM for 1 h. The assay is performed in duplicate. After completion of 1 h, the stir sticks are removed using a big magnet. The samples are then centrifuged at 25°C at 20,000 g for 20 minutes to separate the phases, and syringe is used to remove the lower (buffer) phases to the empty tubes. Then the buffer phase is diluted with the same volume of acetonitrile/ultrapure water (50%/50%) for LC-MS/MS analysis. 300 µM working solution is diluted with acetonitrile/ultrapure water (50%/50%) to achieve a concentration of 3 µM. Then the 3 µM solution is diluted to 0.3 µM to get the total samples by adding 4 volumes of acetonitrile/ultrapure water (50%/50%) and 5 volumes of 1-octanol saturated Phosphate Buffer for LC-MS/MS analysis. […]
# test compounds and control compound is placed in order into their 2.0 mL deep well plate, 500 µL of […]
# followed by the addition of 500 µL of saturated PBS (pH 7.4). Seal the plate using a Silicone sealing mat.
# Then the log D plate is transferred to the Eppendorf Thermomixer Comfort plate shaker and shaken at 25°C at 2,000 RPM for 2 h. After completion of 2 h, the samples are then centrifuged at 25°C at 3,220 g for 30 minutes to separate the phases, and pipette are used to remove the upper (1-octanol) and lower (buffer) phases to the empty tubes, respectively. Aliquots of 50 µL are taken from upper phases followed by addition of 450 µL of acetonitrile (containing internal standards (IS, 200 nM labetalol, 100 nM tolbutamide and 100 nM ketoprofen)). Mix with a pipette, and then aliquots of 50 µL are taken from the diluent followed by addition of 450 µL of acetonitrile (containing internal standards (IS, 200 nM labetalol, 100 nM tolbutamide and 100 nM ketoprofen)). […]
# [2] = Caco-2 cell permeability study; assay type: in vitro ADME; conditions: human; for efflux ratio at 2 h, 5 µM: Caco-2, pH 7.4; for recovery at 2 h, 5 μM: Caco-2, pH 7.4, Caco-2, 5 μM; for Papp A→B at 2 h, 5 µM / Papp B→A at 2 h, 5 µM: pH 7.4, Caco-2, 5 μM; for Papp A→B at 2 h, 5 µM: apical to basolateral; for Papp B→A at 2 h, 5 µM: basolateral to apical
# From the text: One of the physicochemical quantities that mirrors the interaction of a compound with the cell membrane is permeability. Traditionally, measuring permeability with the PAMPA model provides estimates of passive permeability across a model membrane. […] Therefore, we measure the cell permeability of the six compounds using Caco-2 cells, so that the apical to basolateral (A to B) and basolateral to apical (B to A) permeabilities, and thereby the efflux ratio, can be determined. Three commercial drugs (Table 2) are used as standard compounds to establish and validate our in-house assay.
# For Caco-2 cells (originally obtained from the American Type Culture Collection; ATCC, Manassas, VA, USA), 50 μL and […] of cell culture medium are added to each well of the Transwell insert and reservoir, respectively. And then the HTS transwell plates are incubated at 37 °C, 5% CO2 for 1 h before cell seeding. Caco-2 cells are diluted to 6.86 × 10^5 cells/mL with culture medium and 50 μL of cell suspension is dispensed into the filter well of the 96-well HTS Transwell plate. Cells are cultivated for 14–18 days in a cell culture incubator at 37 °C, 5% CO2, 95% relative humidity. Cell culture medium is replaced every other day, beginning no later than 24 h after initial plating. Stock solutions of the test compounds are prepared at a concentration of 10 mM in DMSO. […] Detailed assay procedures are provided in the SI. […]
# dilution factor is changed according to the log D value and the LC-MS signal response. The samples are evaluated by LC-MS/MS analysis. All experiments are performed in duplicates.
# 5. Caco-2 Cell Permeability Assay
# The Caco-2 plate is removed from the incubator and washed twice with pre-warmed HBSS (10 mM HEPES, pH 7.4), and then incubated at 37 °C for 30 minutes. The stock solutions of control compounds and test compounds are diluted in DMSO to get 1 mM solutions and then diluted with HBSS (10 mM HEPES, pH 7.4) get 5 μM working solutions. The final concentration of DMSO in the incubation system is 0.5%. To determine the rate of drug transport in the apical to basolateral direction. 125 μL of 5 μM working solution of control compounds and test compounds are added to the Transwell insert (apical compartment), and transfer 50 μL sample (D0 sample) immediately from the apical compartment to a new 96-well plate. Fill the wells in the receiver plate (basolateral compartment) with 235 μL of HBSS (10 mM HEPES, pH 7.4). To determine the rate of drug transport in the basolateral to apical direction. 285 μL of 5 μM working solution of control compounds and test compounds are to the receiver plate wells (basolateral compartment), and transfer 50 μL sample (D0 sample) immediately from the basolateral compartment to a new 96-well plate.
# Fill the wells in the Transwell insert (apical compartment) with 75 μL of HBSS (10 mM HEPES, pH 7.4).
# The assay is performed in duplicate. The plates are incubated at 37 °C for 2 h. At the end of the incubation, 50 μL samples from donor sides (apical compartment for Ap→Bl flux, and basolateral compartment for Bl→Ap) and receiver sides (basolateral compartment for Ap→Bl flux, and apical compartment for Bl→Ap) are transferred to wells of a new 96-well plate, followed by the addition of 4 volume of cold acetonitrile containing appropriate internal standards (IS). Samples are Vortexed for 5 minutes and then centrifuged at 3,220 g for 30 minutes. An aliquot of 100 µL of the supernatant is mixed with an appropriate volume of ultra-pure water before LC-MS/MS analysis (see SI Bioanalytical Method for Caco-2 Cell Permeability […]
# Papp (A to B) is greater than the Papp (A to B) of minoxidil it is assigned as high permeability. If the Papp (A to B) is […]
# [3] = Kinetic solubility in PBS pH 7.4; assay type: physicochemical; conditions: sodium phosphate buffer (PBS), 25 °C, pH 7.4, aqueous buffer, kinetic from dmso stock, PBS pH 7.4, 25 °C
# Protocol: as §1
# Solubility is determined in 100 mM sodium phosphate buffer (PBS), pH 7.4. The stock solutions of test compound and control compound progesterone are prepared in DMSO at a concentration of 10 mM. 30 µL of working solutions of each sample is placed in order into their proper 96-well rack. 970 µL of PBS pH 7.4 is added into each vial of the cap-less Solubility Sample plate. The assay is performed in duplicate. Add one stir stick to each vial and seal using a molded PTFE/Silicone plug. Then the Solubility Sample plate is transferred to the Eppendorf Thermomixer Comfort plate shaker and shaken at 25 °C at 1100 RPM for 2 h. After completion of the 2 h, plugs are removed and the stir sticks are removed using a big magnet, the samples from the Solubility Sample plate are transferred into the filter plate. Using the Vacuum Manifold, all the samples are filtered. Aliquot of 5 µL is taken from the filtrate, followed by addition of 5 µL DMSO and 490 µL of a mixture of H2O and acetonitrile (1:1 in v/v). 200 μL of diluent is transferred to a new 96-well plate for LC-MS/MS analysis (see SI Bioanalytical Method for Solubility Measurement). The dilution factor is changed according to the solubility values and the LC-MS signal response.
# MRM) / -4500 v (negative MRM). […]
# 13. Bioanalytical Method for Solubility Measurement
# MS analysis: Triple Quad TM 5500 instrument from AB Inc (Canada) with an ESI interface
# Injection volume: 1 μL, 3 μL, 5 μL or 10 μL
# Column: ACQUITY UPLC BEH C18 (2.1 × 50 mmI.D. S-1.7 μm, 12 nm) Column
# Mobile phase: 0.1% Ammonium hydroxide solution in water (A) and 0.1% Ammonium hydroxide solution
# Column: XSelect Hss T3 2.5μm (2.1 × 50 mm) Column XP
# Mobile phase: 0.1% formic acid in water (A) and 0.1% formic acid in acetonitrile (B)
# [4] = read-out: Mean % Solution Recovery A to B
# [5] = read-out: Mean % Solution Recovery B to A
"log D7.4 ([1]; 1-Octanol/PBS pH 7.4, shake-flask)","efflux ratio at 2 h, 5 µM [2]","recovery at 2 h, 5 μM [2, 4] [%]","recovery at 2 h, 5 μM [2, 5] [%]","Papp A→B at 2 h, 5 µM [2] [×10⁻⁶ cm/s]","Papp B→A at 2 h, 5 µM [2] [×10⁻⁶ cm/s]","logD ([1]; 1-octanol/PBS, pH 7.4, 1-Octanol/PBS pH 7.4, shake-flask)",solubility at 2 h [3] [µM],SMILES
−0.30,1.26,99.5,48.6,0.0836,0.105,,,C[C@@H]1C(=O)[C@](C)(O)C(=O)NCC(=O)N[C@H](CN2CCN(C)CC2)/C=C/C(=O)N(C)CC(=O)O[C@H]1CCCCCc1cn(CCCCCCCCCC(=O)O)nn1 [Compound 39]
,25.9,83.2,95,0.77,20,,,"C[C@H]1O[C@@H](O[C@H]2[C@@H](O)C[C@H](O[C@H]3[C@@H](O)C[C@H](O[C@H]4CC[C@@]5(C)[C@H](CC[C@@H]6[C@@H]5C[C@@H](O)[C@]5(C)[C@@H](C7=CC(=O)OC7)CC[C@]65O)C4)O[C@@H]3C)O[C@@H]2C)C[C@H](O)[C@@H]1O [Digoxin, reference compound]"
,1.08,104,106,9.52,10.3,,,"Nc1cc(N2CCCCC2)nc(N)[n+]1[O-] [Minoxidil, reference compound]"
,,,,,,3.85,13.1,"CC(=O)[C@H]1CC[C@H]2[C@@H]3CCC4=CC(=O)CC[C@]4(C)[C@H]3CC[C@]12C [Progesterone, reference compound]"
